The results in this text go back to ChEMBL document CHEMBL1201862, “PubChem BioAssay data set” (2004).

Assay [1] addresses Luciferin 4-monooxygenase (Photinus pyralis, UniProt P08659). Kind of assay: Counter Screen for Luciferase-based Assay Positives. [Related pubchem assays: 620, 618, 411 ].
The next assay has as its system HT-1080. As to the kind of experiment: cytotoxicity in HT1080 fibrosarcoma cells, cell-based, fluorescence readout (AID 620). Type of assay: functional. Conditions: Homo sapiens.
Assay [2] can be described thus: Luminescence-based cell-based high throughput dose response assay to identify activators of the DAF-12 from the parasite S. stercoralis (ssDAF-12). Type of assay: functional.
For assay [3], the target named is T1, Oxysterols receptor LXR-beta (Homo sapiens, UniProt P55055).
T1 sequence (P55055 whole entry): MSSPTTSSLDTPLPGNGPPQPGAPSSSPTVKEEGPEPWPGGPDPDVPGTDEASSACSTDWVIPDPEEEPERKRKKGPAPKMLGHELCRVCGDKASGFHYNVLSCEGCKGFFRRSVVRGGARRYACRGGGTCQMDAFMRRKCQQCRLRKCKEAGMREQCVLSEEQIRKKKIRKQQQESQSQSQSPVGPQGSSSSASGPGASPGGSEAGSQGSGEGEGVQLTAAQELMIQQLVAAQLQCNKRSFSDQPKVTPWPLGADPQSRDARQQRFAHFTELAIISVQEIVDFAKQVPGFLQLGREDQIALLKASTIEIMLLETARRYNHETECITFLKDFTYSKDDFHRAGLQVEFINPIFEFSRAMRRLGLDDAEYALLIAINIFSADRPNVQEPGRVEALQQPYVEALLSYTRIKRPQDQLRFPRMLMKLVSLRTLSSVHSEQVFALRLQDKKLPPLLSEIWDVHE
As to the kind of experiment: LXR agonists, Gal4 luciferase reporter, dose response, counter-screen for ssDAF-12 agonist project, cell-based, luminescence, HEK293, S. stercoralis campaign (AID 720737). To be noted: read-out: IC50 (the source's name). Type of assay: functional.

The target of assay [4] is T1, Oxysterols receptor LXR-beta. The class given is functional, cell-based.
A further assay has as its target Paired box protein Pax-8 (Homo sapiens, UniProt Q06710). Kind of assay: inhibitors of PAX8-driven TPO luciferase reporter, dose response, RMG-I cells, cherry-pick (AID 687027).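 Further: luciferase reporter driven by Pax8 target thyroperoxidase promoter measured by SteadyGlo luminescence.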 Type of assay: functional, cell-based.
Assay [5] in a line: PAX2 cell-based inhibition, dose response, selectivity assay for PAX8 inhibitor project, plate reader, dry powder samples (AID 743048).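 Further: HEK293 cells carrying a WT1 promoter luciferase reporter driven by expressed Pax2; potency is for inhibition of Pax2 driven reporter signal.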 The class given is functional.
The nature of assay [6]: cytotoxicity in COV362 ovarian cancer cells, dose response, cytotoxicity control for PAX8 inhibitor project, cell-based, plate reader, dry powder, SA12 (AID 743144). Type of assay: functional.
Assay [7] is described as follows: NIH:OVCAR-3 ovarian cancer cell cytotoxicity, dose response, PAX8 inhibitor project, plate reader, dry powder samples (AID 743044). Type of assay: functional, cell-based.
Assay [8] in a line: PAX5 activity inhibitors, dose response, selectivity assay for PAX8 inhibitor project, cell-based, plate reader, dry powder samples (AID 743047).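 Further: HEK293 cells carrying a Pax5 driven CD19 promoter luciferase reporter; potency of inhibitors that lower reporter luminescence.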 Type of assay: functional.
Assay [9] is described as follows: cytotoxicity in OVCAR4 cells, dose response, cytotoxicity control for PAX8 inhibitor project, cell-based, plate reader, dry powder, SA11 (AID 743150). The class given is functional. To be noted: OVCAR-4.
Assay [10] can be described thus: cytotoxicity in COV434 cells, dose response, cytotoxicity control for PAX8 inhibitor project, cell-based, plate reader, dry powder, SA7 (AID 743145). Type of assay: functional.
A short description of assay [11]: cytotoxicity in OV-90 ovarian cancer cells, dose response, PAX8 inhibitor project, cell-based, plate reader, dry powder, SA8 (AID 743149). The class given is functional.
Assay [12] in a line: cytotoxicity dependent on PAX8, dose response, cell-based, plate reader, dry powder (AID 743049). The class given is functional.
Assay [13] is described as follows: P. falciparum 3D7-ScDHODH growth inhibitors, dose response, SYBR Green, dry powder samples (AID 1159570).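 Further: parasite growth measured after 72 hours of compound exposure.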 The class given is functional, cell-based.
A short description of assay [14]: P. falciparum Dd2 growth inhibitors, dose response, SYBR Green, cherry-picked samples (AID 1159567). The class given is functional, cell-based.
A short description of assay [15]: P. falciparum Dd2 growth inhibitors, dose response, SYBR Green, dry powder samples (AID 1159566).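 Further: potency for growth inhibition with lower SYBR green DNA signal.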 Type of assay: functional, cell-based.
Assay [16] in a line: HepG2 cell cytotoxicity, dose response, cytotoxicity control, cherry-picked samples (AID 1159577). The class given is functional, cell-based.
Assay [17] is described as follows: P. falciparum ATP4 D1247Y mutant growth inhibitors, dose response, NITD609-resistant line, SYBR Green, dry powder (AID 1159571).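 Further: parasites synchronized at ring stage by sorbitol before testing.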 Type of assay: functional, cell-based.
A short description of assay [18]: Shn3 3'UTR reporter inhibitors, dose response, cell-based, Clone20 osteoblasts, firefly luciferase, cherry-picked (AID 624132).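 Further: firefly luciferase luminescence from reporter carrying the Shn3 3'UTR in osteoblasts.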 Type of assay: functional.
The nature of assay [19]: HepG2 cell cytotoxicity, dose response, cytotoxicity control for Shn3 inhibitor project, CellTiter-Glo, cherry-picked (AID 624134). Type of assay: functional, cell-based.
The nature of assay [20]: control 3'UTR Renilla luciferase suppression, dose response, counter-screen for Shn3 inhibitor project, cell-based, Clone20-Shn3RL, cherry-picked (AID 624133). The class given is functional.
The next assay deals with Protein Wnt-3a (Mus musculus, UniProt P27467). Kind of assay: Wnt3a-driven reporter signaling inhibition, dose response, selectivity assay for Gli-SUFU antagonist project, Wnt-LIGHT cells, luminescence (AID 651570).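 Further: Wnt-LIGHT reporter cells stimulated with conditioned medium from Wnt3a-producing cells.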 Type of assay: functional. Conditions: read-out: IC50_Mean.
Protein Wnt-3a, sequence (P27467 whole entry): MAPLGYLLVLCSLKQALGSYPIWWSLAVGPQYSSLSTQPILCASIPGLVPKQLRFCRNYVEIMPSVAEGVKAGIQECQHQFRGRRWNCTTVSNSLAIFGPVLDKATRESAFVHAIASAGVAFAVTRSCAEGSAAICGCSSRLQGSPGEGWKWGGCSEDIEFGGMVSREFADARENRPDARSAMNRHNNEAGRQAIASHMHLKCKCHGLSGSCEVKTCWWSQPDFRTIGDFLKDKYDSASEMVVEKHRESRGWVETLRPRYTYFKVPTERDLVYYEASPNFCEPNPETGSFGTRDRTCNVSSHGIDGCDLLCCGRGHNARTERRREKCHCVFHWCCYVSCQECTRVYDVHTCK
Assay [21] in a line: reduction of Shn3 3'UTR firefly luciferase signal, dose response, Schnurri-3 inhibitor project, cell-based, Clone20 osteoblasts, cherry-pick, set 2 (AID 720490).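 Further: actives lower the luminescence signal as inhibitors.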 The class given is functional.
The subject of a further assay is HEK293. Kind of assay: HEK293T cell cytotoxicity, dose response, cytotoxicity control, ATP luminescence, cherry-pick samples (AID 687005).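 Further: cells exposed to compound for 48 hours.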 Type of assay: functional, cell-based. To be noted: Homo sapiens.
Assay [22] can be described thus: A2780 ovarian cancer cell cytotoxicity, dose response, cytotoxicity control, plate reader, dry powder samples (AID 743046). Type of assay: functional, cell-based.
A short description of assay [23]: HEK293 Cytotoxicity Assay Measured in Cell-Based System Using Plate Reader - 7071-01_Inhibitor_Dose_CherryPick_Activity_Set2. The class given is functional.
Assay [24] deals with NAD-dependent protein deacylase sirtuin-5, mitochondrial (Homo sapiens, UniProt Q9NXA8). As to the kind of experiment: SIRT5 deacylase inhibitors, dose response, biochemical, fluorescence imaging, cherry-pick, set 6 (AID 720597).
NAD-dependent protein deacylase sirtuin-5, mitochondrial, sequence (Q9NXA8 whole entry): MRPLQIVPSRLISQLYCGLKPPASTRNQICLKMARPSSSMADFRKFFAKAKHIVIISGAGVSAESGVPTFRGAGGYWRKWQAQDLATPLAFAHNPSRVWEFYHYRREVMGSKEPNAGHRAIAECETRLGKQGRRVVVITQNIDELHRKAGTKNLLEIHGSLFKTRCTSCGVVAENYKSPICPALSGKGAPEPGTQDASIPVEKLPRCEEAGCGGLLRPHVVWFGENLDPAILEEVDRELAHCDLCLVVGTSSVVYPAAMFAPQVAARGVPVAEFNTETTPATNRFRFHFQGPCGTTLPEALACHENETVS

Calls of active or inactive are those of the source.

Paired box protein Pax-8, sequence (Q06710 whole entry): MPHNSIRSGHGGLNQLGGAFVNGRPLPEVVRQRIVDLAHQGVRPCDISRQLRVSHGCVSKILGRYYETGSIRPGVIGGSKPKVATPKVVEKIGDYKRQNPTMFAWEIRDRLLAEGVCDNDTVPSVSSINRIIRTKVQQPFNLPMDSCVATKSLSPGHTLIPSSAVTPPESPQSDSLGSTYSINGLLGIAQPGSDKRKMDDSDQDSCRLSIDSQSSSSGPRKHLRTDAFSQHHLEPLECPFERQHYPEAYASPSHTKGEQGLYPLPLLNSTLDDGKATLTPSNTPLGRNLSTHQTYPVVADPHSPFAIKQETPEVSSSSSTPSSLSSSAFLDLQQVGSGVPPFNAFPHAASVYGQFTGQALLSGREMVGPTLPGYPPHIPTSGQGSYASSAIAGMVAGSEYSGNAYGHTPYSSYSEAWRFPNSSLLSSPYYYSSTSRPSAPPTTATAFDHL
Luciferin 4-monooxygenase, sequence (P08659 whole entry): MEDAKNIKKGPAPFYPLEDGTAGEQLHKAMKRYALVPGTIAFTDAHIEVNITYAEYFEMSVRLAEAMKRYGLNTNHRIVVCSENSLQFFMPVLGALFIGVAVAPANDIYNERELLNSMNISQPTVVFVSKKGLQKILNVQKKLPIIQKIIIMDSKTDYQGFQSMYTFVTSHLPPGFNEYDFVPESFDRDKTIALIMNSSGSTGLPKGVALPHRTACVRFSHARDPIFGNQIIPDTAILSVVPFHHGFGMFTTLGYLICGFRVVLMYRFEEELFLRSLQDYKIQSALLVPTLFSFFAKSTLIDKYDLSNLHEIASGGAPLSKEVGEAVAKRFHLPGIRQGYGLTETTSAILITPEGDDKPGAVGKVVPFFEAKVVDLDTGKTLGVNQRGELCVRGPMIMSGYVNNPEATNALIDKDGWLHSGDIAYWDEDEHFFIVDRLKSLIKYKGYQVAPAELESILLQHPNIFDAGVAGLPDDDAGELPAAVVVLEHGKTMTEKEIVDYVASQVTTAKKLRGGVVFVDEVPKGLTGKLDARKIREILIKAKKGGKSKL

Take `O=C1c2ccccc2C(=O)C1c1nccc2ccccc12`: the EC50 was 1.3 µM (active) in assay [1]; > 50 µM (not active) in the assay on HT-1080; > 67.5 µM (inactive) in [3]; > 67.5 µM (inactive) in [4]; > 67.5 µM (inactive) in “cells”. Moreover, the IC50 in assay [2] was > 67.5 µM (inactive).
In the case of `N#C[C@H]1[C@@H](c2ccc(C#Cc3ccccc3F)cc2)[C@@H](CO)N1C(=O)C1CCCCC1`, the AC50 was 3.09 µM (active) on Paired box protein Pax-8; 14.2 µM (active) in assay [5]; 36.2 µM (active) in [6]; 16.1 µM (active) in assay [7]; 13 µM (active) in [8]; 3.01 µM (active) in assay [9]. Further, the AC50 in assay [10] was 20.3 µM (active); in [11], 27.7 µM (active); in assay [12], 7.86 µM (active); in [13], 0.8 µM (active); in assay [14], 1.09 µM (active); in assay [15] it was 0.584 µM (active). Moreover, the AC50 was > 39 µM (inactive) in [16] and 1.23 µM (active) in assay [17].
For `CC(C)Cn1c(N)c(C(=O)COC(=O)C2Cc3ccccc3CN2S(C)(=O)=O)c(=O)n(C)c1=O` (stereo not given), the AC50 in [18] was 0.72 µM (active); in assay [19] it was > 70 µM (inactive); in assay [20] it was 4.76 µM (active); in assay [21], 0.897 µM (active). Besides, the IC50 at Protein Wnt-3a is 6.31 µM (active).
In the case of `COc1cccc(S(=O)(=O)N(C)C[C@@H]2OCc3ccccc3-c3ccccc3C(=O)N([C@@H](C)CO)C[C@@H]2C)c1`, the AC50 was 15.9 µM (active) on Paired box protein Pax-8, 36 µM (active) in the assay on HEK293, 53.8 µM (active) in assay [22] and 36 µM (active) in assay [23].
On to `C[C@H](CO)N1C[C@H](C)[C@H](CN(C)C(=O)Cc2ccccc2)Oc2ncc(C3=CCCCC3)cc2C1=O`, for which the AC50 in [24] was > 30 µM (inactive).
